According to patent publication US20230183193A1, “4-DIFLUOROMETHYL BENZOYL AMIDES WITH HERBICIDAL ACTION” (BAYER CROPSCIENCE AKTIENGESELLSCHAFT, priority 2017, published 2023):

What was measured:
Assay type in all cases: in vivo
Viola tricolor [1] = test: Post-emergence herbicidal action, VIOTR; conditions: 80 g/ha, Table D
Outline: (§1)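 Post-emergence spray; one-leaf stage (2–3 wk after sowing), sandy loam, greenhouse. WP/EC in water, 600 to […], +0.2% wetting agent. Visual % damage vs untreated at ~3 wk; 100% = plants dead.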

Amaranthus retroflexus [2] = test: Pre-emergence herbicidal action, AMARE; conditions: dosage 320 g/ha, scored visually after 3 weeks vs untreated controls
Outline: (§2)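 Percent herbicidal activity rated by eye 3 weeks after pre-emergence soil-surface application, compared with untreated pots. Seeds sat under sandy loam; sprays carried 0.2% wetting agent.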

Alopecurus myosuroides [3] = test: Post-emergence herbicidal action, ALOMY; conditions: 80 g/ha, Table C
Outline: as §1

Viola tricolor [4] = test: Pre-emergence herbicidal action, VIOTR; conditions: dosage 320 g/ha, scored visually after 3 weeks vs untreated controls
Outline: as §2

Abutilon theophrasti [5] = test: Post-emergence herbicidal action, ABUTH; conditions: 80 g/ha, Table D
Outline: as §1

ECHCG = test: Post-emergence herbicidal action, ECHCG; conditions: 80 g/ha, Table C
Outline: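 Weed and crop plants grown in sandy loam in the greenhouse, treated at the one-leaf stage 2–3 weeks after sowing. Damage scored visually after about 3 weeks vs untreated controls (0% = control, 100% = dead).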

Abutilon theophrasti [6] = test: Pre-emergence herbicidal action, ABUTH; conditions: dosage 320 g/ha, scored visually after 3 weeks vs untreated controls
Outline: as §2

Alopecurus myosuroides [7] = test: Pre-emergence herbicidal action, ALOMY; conditions: dosage 320 g/ha, scored visually after 3 weeks vs untreated controls
Outline: as §2

Matricaria inodora = test: Pre-emergence herbicidal action, MATIN; conditions: dosage 320 g/ha, scored visually after 3 weeks vs untreated controls
Outline: as §2

Cyperus serotinus = test: Pre-emergence herbicidal action, CYPES; conditions: dosage 320 g/ha, scored visually after 3 weeks vs untreated controls
Outline: as §2

Avena fatua [8] = test: Pre-emergence herbicidal action, AVEFA; conditions: dosage 320 g/ha, scored visually after 3 weeks vs untreated controls
Outline: as §2

Setaria viridis [9] = test: Post-emergence herbicidal action, SETVI; conditions: 80 g/ha, Table C
Outline: as §1

Stellaria media [10] = test: Pre-emergence herbicidal action, STEME; conditions: dosage 320 g/ha, scored visually after 3 weeks vs untreated controls
Outline: as §2

Stellaria media [11] = test: Post-emergence herbicidal action, STEME; conditions: 80 g/ha, Table D
Outline: as §1

Setaria viridis [12] = test: Pre-emergence herbicidal action, SETVI; conditions: dosage 320 g/ha, scored visually after 3 weeks vs untreated controls
Outline: as §2

Amaranthus retroflexus [13] = test: Post-emergence herbicidal action, AMARE; conditions: 80 g/ha, Table D
Outline: as §1

Avena fatua [14] = test: Post-emergence herbicidal action, AVEFA; conditions: 80 g/ha, Table C
Outline: as §1

Pharbitis purpureum = test: Post-emergence herbicidal action, PHBPU; conditions: 80 g/ha, Table D
Outline: as §1

SMILES | herbicidal activity VIOTR (Viola tricolor [1]) [%] | herbicidal activity AMARE (Amaranthus retroflexus [2]) [%] | herbicidal activity ALOMY (Alopecurus myosuroides [3]) [%] | herbicidal activity VIOTR (Viola tricolor [4]) [%] | herbicidal activity ABUTH (Abutilon theophrasti [5]) [%] | Herbicidal activity ECHCG (ECHCG) [%] | herbicidal activity ABUTH (Abutilon theophrasti [6]) [%] | herbicidal activity ALOMY (Alopecurus myosuroides [7]) [%] | herbicidal activity MATIN (Matricaria inodora) [%] | herbicidal activity CYPES (Cyperus serotinus) [%] | herbicidal activity AVEFA (Avena fatua [8]) [%] | herbicidal activity SETVI (Setaria viridis [9]) [%] | Herbicidal activity STEME (Stellaria media [10]) [%] | Herbicidal activity STEME (Stellaria media [11]) [%] | herbicidal activity SETVI (Setaria viridis [12]) [%] | herbicidal activity AMARE (Amaranthus retroflexus [13]) [%] | herbicidal activity AVEFA (Avena fatua [14]) [%] | Herbicidal activity PHBPU (Pharbitis purpureum) [%]
CCSc1c(C(F)F)ccc(C(=O)Nc2nnnn2CC)c1Br [Example 2-64] | 100 | 100 | 100 | 100 | 100 | 100 | 100 | 100 | 100 | 100 | 100 | 100 | 100 | 100 | 100 | 100 | 100 | 100
CCc1c(C(=O)Nc2nnnn2CC)ccc(C(F)F)c1[S+]([O-])CC (stereo not drawn) [Example 2-17] | 100 | 100 | 90 | 100 | 100 | 90 | 100 | 100 | 100 | 100 | 100 | 90 | 100 | 100 | 100 | 100 | 100 | 100
CSc1c(C(F)F)ccc(C(=O)Nc2ncnn2C)c1Br [Example 4-61] | 100 | 100 | 100 | 100 | 100 | 100 | 100 | 100 | 100 | 90 | 90 | 100 | 90 | 100 | 100 | 100 | 100 | 100
CCn1nnnc1NC(=O)c1ccc(C(F)F)c(S(=O)(=O)CC)c1C1CC1 [Example 2-30] | 100 | 100 | 90 | 100 | 100 | 100 | 100 | 100 | 100 | 90 | 100 | 100 | 100 | 100 | 100 | 100 | 90 | 90
CCn1nnnc1NC(=O)c1ccc(C(F)F)c(SC)c1Cl [Example 2-49] | 100 | 100 | 100 | 100 | 100 | 100 | 100 | 100 | 100 | 90 | 100 | 100 | 90 | 100 | 100 | 100 | 100 | 100
CCn1nnnc1NC(=O)c1ccc(C(F)F)c([S+](C)[O-])c1Br (stereo not drawn) [Example 2-62] | 100 | 100 | 90 | 100 | 100 | 100 | 100 | 100 | 100 | 100 | 100 | 100 | 100 | 100 | 100 | 100 | 100 | 100
Cn1nnnc1NC(=O)c1ccc(C(F)F)c([S+](C)[O-])c1C1CC1 (stereo not drawn) [Example 1-26] | 100 | 100 | 90 | 100 | 100 | 100 | 100 | 100 | 100 | 100 | 100 | 100 | 100 | 100 | 100 | 100 | 100 | 90
CCn1nnnc1NC(=O)c1ccc(C(F)F)c([S+]([O-])CC)c1C1CC1 (stereo not drawn) [Example 2-29] | 100 | 100 | 100 | 100 | 100 | 100 | 100 | 100 | 100 | 90 | 100 | 100 | 100 | 100 | 100 | 100 | 90 | 90
CC[S+]([O-])c1c(C(F)F)ccc(C(=O)Nc2ncnn2C)c1Cl (stereo not drawn) [Example 4-53] | 100 | 100 | 90 | 100 | 100 | 90 | 100 | 100 | 100 | 100 | 100 | 100 | 100 | 90 | 100 | 100 | 100 | 90
CCn1nnnc1NC(=O)c1ccc(C(F)F)c([S+]([O-])CC)c1F (stereo not drawn) [Example 2-41] | 100 | 100 | 80 | 100 | 100 | 100 | 100 | 100 | 100 | 90 | 100 | 100 | 100 | 100 | 100 | 90 | 90 | 90
CCSc1c(C(F)F)ccc(C(=O)Nc2nnnn2C)c1C1CC1 [Example 1-28] | 100 | 100 | 90 | 100 | 100 | 100 | 100 | 100 | 100 | 100 | 100 | 100 | 100 | 100 | 100 | 100 | 100 | 100
